Measured values from patent US20180037923A1, “SELECTIVE DETECTION OF LACTIC ACID AND/OR ACETIC ACID BACTERIA OR OF FUNGI” (priority 2015, published 2018).

What was measured:
Sacch. Diastaticus IFBM = assay: Agar plate count after contact with antifungal; format: cell-based, Saccharomyces diastaticus
From the text: (§1) The word “bactericide” refers to a treatment having the effect of reducing a bacterial population by at least three decimal logarithms of colony forming units/ml on an agar plate count of a sample after treatment.
(§2) The toxicity results on yeasts and on bacteria are presented in the table below displaying the duration of exposure of the fungal flora to molecule A1 and the associated fluorescence measurement: yeasts lysis after exposure to the antifungal was confirmed by microscopic examination and methylene blue staining.
(§3) The words “contact time” refer to below, the time of exposure of the microorganisms to the fungicidal product, here molecule A1.
(§4) Below: “No CFU” is the abbreviation for “No Colony forming unit on agar plate count”.
(§5) The toxicity results on yeasts and on bacteria are presented in the table below displaying the duration of exposure of the fungal flora to the molecule A2 and are obtained by enumeration on MRS agar media.

G. oxydans DSM 7145 = assay: Agar plate count after contact with antifungal; format: cell-based, Gluconobacter oxydans
From the text: as §1, §2, §3, §4, §5

[1] = tested on: Lactobacillus paracasei IFBM; assay: Agar plate count after contact with antifungal; format: cell-based; conditions: count at contact time 0 h 1.4.10^7 CFU/mL
From the text: as §1, §2, §3, §4, §5

[2] = tested on: Oenococcus oeni DSM 20252; assay: Agar plate count after contact with antifungal; format: cell-based
From the text: as §1, §2, §3, §4, §5

[3] = tested on: Lactobacillus lindneri DSM 20690; assay: Agar plate count after contact with antifungal; format: cell-based
From the text: as §1, §2, §3, §4, §5

[4] = tested on: Lactobacillus brevis IFBM; assay: Agar plate count after contact with antifungal; format: cell-based; conditions: count at contact time 0 h 7.10^5 CFU/mL
From the text: as §1, §2, §3, §4, §5

[5] = tested on: Zyggosaccharomyces bailii; assay: Agar plate count after contact with antifungal; format: cell-based; conditions: 400 mg/L
From the text: as §1, §2, §3, §4, §5

Pedicoccus damnosus IFBM = assay: Agar plate count after contact with antifungal; format: cell-based
From the text: as §1, §2, §3, §4, §5

Dekkera anomala IFBM = assay: Agar plate count after contact with antifungal; format: cell-based
From the text: as §1, §2, §3, §4, §5

[6] = tested on: Brettanomyces bruxellensis Wyeast labs; assay: Agar plate count after contact with antifungal; format: cell-based
From the text: as §1, §2, §3, §4, §5

[7] = tested on: Lactobacillus parabuchneri DSM 5708; assay: Agar plate count after contact with antifungal; format: cell-based; conditions: count at contact time 0 h 1.4.10^6 CFU/mL
From the text: as §1, §2, §3, §4, §5

[8] = tested on: Acetobacter aceti DSM 3508; assay: Agar plate count after contact with antifungal; format: cell-based; conditions: count at contact time 0 h 2.9.10^7 CFU/mL
From the text: as §1, §2, §3, §4, §5

[9] = tested on: lactic acid bacteria and acetic acid bacteria; assay: Bactericidal action on the bacterial flora (conclusion from agar plate counts); format: cell-based; conditions: for Bactericidal action on lactic acid and acetic acid flora: bactericide = reduction by at least three decimal logarithms of CFU/ml
From the text: as §1, §2, §5

[10] = tested on: Sacch. Cerevisae DSM 70449; assay: Agar plate count after contact with antifungal; format: cell-based, Saccharomyces cerevisae; conditions: for Agar plate count contact time 4 h: 400 mg/L
From the text: as §1, §2, §3, §4, §5

[11] = tested on: Sacch. Cerevisae Saflager S23; assay: Agar plate count after contact with antifungal; format: cell-based, Saccharomyces cerevisae; conditions: 400 mg/L
From the text: as §1, §2, §3, §4, §5

[12] = tested on: yeast populations versus lactic acid and acetic acid bacteria; assay: Concentration threshold for being antifungal while non-bactericidal; format: cell-based; conditions: estimated
Method: It is estimated that for the molecule A1 the concentration threshold allowing to obtain the effect of the invention of being non-bactericidal for the lactic acid and acetic acid bacteria while being antifungal for the yeast populations is comprised within 50 mg/l or 50 mg/l and 100 mg/l.
In order to determine whether a particular molecule is suitable for the invention, a person skilled in the art may constitute a first list of antifungal products and a second list of non-bactericidal products for bacteria and select the products appearing in the first and second list for which the fungicidal activity intervenes prior to the bactericidal activity. However, an experimental verification of the fungicidal activity will be necessary to determine the minimum antifungal concentration per mg/L or in microgram per milliliter depending on the targeted fungal flora.

[13] = 200 mg/L, count at contact time 0 h 8.10^8 CFU/mL
[14] = 400 mg/L, count at contact time 0 h 8.10^7 CFU/mL
[15] = 200 mg/L, count at contact time 0 h 4.10^9 CFU/mL
[16] = 400 mg/L, count at contact time 0 h 4.10^7 CFU/mL
[17] = 200 mg/L, count at contact time 0 h 6.10^6 CFU/mL
[18] = 400 mg/L, count at contact time 0 h 6.10^5 CFU/mL
[19] = 200 mg/L, count at contact time 0 h 7.2.10^5 CFU/mL
[20] = 400 mg/L, count at contact time 0 h 1.1.10^5 CFU/mL
[21] = count at contact time 0 h 2.10^5 CFU/mL

## CCC(C)(C)c1ccc(CC(C)CN2C[C@@H](C)O[C@@H](C)C2)cc1 (some centres unmarked) [Molecule A2, Amorolfine]
Sacch. Diastaticus IFBM; 400 mg/L, count at contact time 0 h 2.10^6 CFU/mL
  Agar plate count contact time 4 h: No CFU
G. oxydans DSM 7145; [13]
  Agar plate count contact time 4 h: 1.10^9 CFU/mL
G. oxydans DSM 7145; [14]
  Agar plate count contact time 4 h: 9.10^7 CFU/mL
[1]; 200 mg/L
  Agar plate count contact time 4 h: 5.10^7 CFU/mL
[1]; 400 mg/L
  Agar plate count contact time 4 h: 4.10^7 CFU/mL
[2]; [15]
  Agar plate count contact time 4 h: 6.10^9 CFU/mL
[2]; [16]
  Agar plate count contact time 4 h: 5.10^7 CFU/mL
[3]; [17]
  Agar plate count contact time 4 h: 1.10^6 CFU/mL
[3]; [18]
  Agar plate count contact time 4 h: 5.10^5 CFU/mL
[4]; 200 mg/L
  Agar plate count contact time 4 h: 1.10^6 CFU/mL
[4]; 400 mg/L
  Agar plate count contact time 4 h: 8.10^5 CFU/mL
[5]; count at contact time 0 h 2.2.10^6 CFU/mL
  Agar plate count contact time 4 h: No CFU
Pedicoccus damnosus IFBM; [19]
  Agar plate count contact time 4 h: 1.5.10^5 CFU/mL
Pedicoccus damnosus IFBM; [20]
  Agar plate count contact time 4 h: 1.10^4 CFU/mL
Dekkera anomala IFBM; 400 mg/L, count at contact time 0 h 5.10^3 CFU/mL
  Agar plate count contact time 4 h: No CFU
[6]; [17]
  Agar plate count contact time 4 h: No CFU
[6]; 400 mg/L, count at contact time 0 h 1.8.10^6 CFU/mL
  Agar plate count contact time 4 h: No CFU
[7]; 200 mg/L
  Agar plate count contact time 4 h: 5.10^5 CFU/mL
[7]; 400 mg/L
  Agar plate count contact time 4 h: 3.10^4 CFU/mL
[8]; 200 mg/L
  Agar plate count contact time 4 h: 6.10^6 CFU/mL
[8]; 400 mg/L
  Agar plate count contact time 4 h: 9.10^6 CFU/mL
[9]; doses of 200 mg/liter
  Bactericidal action on lactic acid and acetic acid flora: neither bactericidal for the lactic acid flora nor bactericidal for the acetic acid flora
[9]; doses of 400 mg/liter
  Bactericidal action on lactic acid and acetic acid flora: neither bactericidal for the lactic acid flora nor bactericidal for the acetic acid flora
[10]; count at contact time 0 h 5.8.10^5 CFU/mL
  Agar plate count contact time 4 h: No CFU
[11]; count at contact time 0 h 3.2.10^5 CFU/mL
  Agar plate count contact time 4 h: No CFU

## C[C@@H](c1ncncc1F)[C@](O)(Cn1cncn1)c1ccc(F)cc1F [Molecule A3, voriconazole]
Sacch. Diastaticus IFBM; 400 mg/L, count at contact time 0 h 1.10^4 CFU/mL
  Agar plate count contact time 18 h: No CFU
G. oxydans DSM 7145; [13]
  Agar plate count contact time 18 h: 1.10^9 CFU/mL
G. oxydans DSM 7145; [14]
  Agar plate count contact time 18 h: 1.10^8 CFU/mL
[1]; 200 mg/L
  Agar plate count contact time 18 h: 5.10^7 CFU/mL
[1]; 400 mg/L
  Agar plate count contact time 18 h: 2.10^7 CFU/mL
[2]; [15]
  Agar plate count contact time 18 h: 6.10^9 CFU/mL
[2]; [16]
  Agar plate count contact time 18 h: 1.10^8 CFU/mL
[3]; [17]
  Agar plate count contact time 18 h: 1.10^6 CFU/mL
[3]; [18]
  Agar plate count contact time 18 h: 7.10^4 CFU/mL
[4]; 200 mg/L
  Agar plate count contact time 18 h: 1.10^6 CFU/mL
[4]; 400 mg/L
  Agar plate count contact time 18 h: 1.10^6 CFU/mL
Pedicoccus damnosus IFBM; [19]
  Agar plate count contact time 18 h: 1.5.10^5 CFU/mL
Pedicoccus damnosus IFBM; [20]
  Agar plate count contact time 18 h: 2.10^4 CFU/mL
Dekkera anomala IFBM; 400 mg/L, count at contact time 0 h 7.10^5 CFU/mL
  Agar plate count contact time 18 h: No CFU
[6]; [17]
  Agar plate count contact time 18 h: 9.10^1 CFU/mL
[6]; 400 mg/L, count at contact time 0 h 8.10^4 CFU/mL
  Agar plate count contact time 18 h: No CFU
[7]; 200 mg/L
  Agar plate count contact time 18 h: 5.10^5 CFU/mL
[7]; 400 mg/L
  Agar plate count contact time 18 h: 6.10^5 CFU/mL
[8]; 200 mg/L
  Agar plate count contact time 18 h: 6.10^6 CFU/mL
[8]; 400 mg/L
  Agar plate count contact time 18 h: 4.10^7 CFU/mL
[9]; doses of 200 mg/liter
  Bactericidal action on lactic acid and acetic acid flora: neither bactericidal for the lactic acid flora nor bactericidal for the acetic acid flora
[9]; doses of 400 mg/liter
  Bactericidal action on lactic acid and acetic acid flora: neither bactericidal for the lactic acid flora nor bactericidal for the acetic acid flora

## C[C@@H]1C[C@@H]([C@H](O)CC2CC(=O)NC(=O)C2)C(=O)[C@@H](C)C1 [Molecule A4, cycloheximide]
[12]
  Concentration threshold allowing to obtain the effect of the invention: greater than 300 mg/l
Sacch. Diastaticus IFBM; Test No 2: 400 mg/L, count at contact time 0 h 4.10^4 CFU/mL
  Agar plate count contact time 18 h: No CFU
G. oxydans DSM 7145; [14]
  Agar plate count contact time 18 h: 1.10^8 CFU/mL
[1]; 400 mg/L
  Agar plate count contact time 18 h: 3.10^7 CFU/mL
[2]; [16]
  Agar plate count contact time 18 h: 1.10^8 CFU/mL
[3]; [18]
  Agar plate count contact time 18 h: 1.10^5 CFU/mL
[4]; 400 mg/L
  Agar plate count contact time 18 h: 2.10^6 CFU/mL
Pedicoccus damnosus IFBM; [20]
  Agar plate count contact time 18 h: 4.10^4 CFU/mL
Dekkera anomala IFBM; Test No 2: 400 mg/L, count at contact time 0 h 1.10^5 CFU/mL
  Agar plate count contact time 18 h: 1.2.10^1 CFU/mL
[6]; Test No 2: 400 mg/L, count at contact time 0 h 7.3.10^5 CFU/mL
  Agar plate count contact time 18 h: No CFU
[7]; 400 mg/L
  Agar plate count contact time 18 h: 6.10^6 CFU/mL
[8]; 400 mg/L
  Agar plate count contact time 18 h: 9.10^7 CFU/mL
[9]; doses of 400 mg/liter or more
  Effect on bacteria cell integrity: preserves bacteria cell integrity
[10]; Test No 2: 400 mg/L, count at contact time 0 h 5.10^4 CFU/mL
  Agar plate count contact time 18 h: No CFU

## CC[C@H](C)C[C@H](C)CCCCCCCCC(=O)N[C@H]1C[C@@H](O)[C@@H](NCCN)NC(=O)[C@@H]2[C@@H](O)CCN2C(=O)[C@H]([C@H](O)CCN)NC(=O)[C@H]([C@H](O)[C@@H](O)c2ccc(O)cc2)NC(=O)[C@@H]2C[C@@H](O)CN2C(=O)[C@H]([C@@H](C)O)NC1=O [Molecule A5, caspofungin]
Sacch. Diastaticus IFBM; 400 mg/L, count at contact time 0 h 4.10^4 CFU/mL
  Agar plate count contact time 4 h: No CFU
G. oxydans DSM 7145; [13]
  Agar plate count contact time 4 h: 1.10^9 CFU/mL
G. oxydans DSM 7145; [14]
  Agar plate count contact time 4 h: 9.10^7 CFU/mL
[1]; 200 mg/L
  Agar plate count contact time 4 h: 1.1.10^4 CFU/mL
[1]; 400 mg/L
  Agar plate count contact time 4 h: 1.10^2 CFU/mL
[2]; [15]
  Agar plate count contact time 4 h: 6.10^9 CFU/mL
[2]; [16]
  Agar plate count contact time 4 h: 5.10^7 CFU/mL
[3]; [17]
  Agar plate count contact time 4 h: 9.10^1 CFU/mL
[3]; [18]
  Agar plate count contact time 4 h: 1.10^2 CFU/mL
[4]; 200 mg/L
  Agar plate count contact time 4 h: 1.10^2 CFU/mL
[4]; 400 mg/L
  Agar plate count contact time 4 h: 2.10^2 CFU/mL
[5]; [21]
  Agar plate count contact time 4 h: No CFU
Pedicoccus damnosus IFBM; [19]
  Agar plate count contact time 4 h: No CFU
Pedicoccus damnosus IFBM; [20]
  Agar plate count contact time 4 h: No CFU
Dekkera anomala IFBM; 400 mg/L, count at contact time 0 h 1.4.10^4 CFU/mL
  Agar plate count contact time 4 h: No CFU
[6]; [17]
  Agar plate count contact time 4 h: No CFU
[6]; 400 mg/L, count at contact time 0 h 1.7.10^4 CFU/mL
  Agar plate count contact time 4 h: No CFU
[7]; 200 mg/L
  Agar plate count contact time 4 h: No CFU
[7]; 400 mg/L
  Agar plate count contact time 4 h: No CFU
[8]; 200 mg/L
  Agar plate count contact time 4 h: 1.10^5 CFU/mL
[8]; 400 mg/L
  Agar plate count contact time 4 h: 2.10^6 CFU/mL
[9]; doses of 200 mg/liter
  Bactericidal action on acetic acid bacteria and the lactic acid bacteria oenooccus oeni: non-bactericidal
[9]; doses of 400 mg/liter
  Bactericidal action on acetic acid bacteria and the lactic acid bacteria oenooccus oeni: non-bactericidal
[10]; [21]
  Agar plate count contact time 4 h: No CFU
[11]; count at contact time 0 h 3.10^5 CFU/mL
  Agar plate count contact time 4 h: No CFU
